According to US20230404979A1, “ALPHA-2 […] RECEPTOR AGONISTS TO REDUCE MORTALITY AND IMPROVE OUTCOMES IN VIRAL R[…]” (RUSH UNIVERSITY MEDICAL CENTER, priority 2020, published 2023):
Like-named read-outs stand apart in the source and are kept apart here.

Experiments:
[1] = tested on: patients with COVID-19 requiring sedation and invasive mechanical ventilation; details: for Hospital length of stay / ICU Free days at day 60 / ICU time / Intubation time / Ventilator free days at day 60: mean
From the text: (§1) Data was collected from electronic medical records (EMRs) of Rush University hospitals: Rush University Medical Center; Rush Copley Medical Center; and Rush Oak Park Hospital. Deidentified data was collected from the EMRs by the Rush Bioinformatics and Biostatistics Core. This retrospective cohort study received expedited approval by the Institutional Review Board at Rush University Medical Center.
We identified patients that were hospitalized at Rush University from Mar. 1, 2020 to Jul. 30, 2020. […] Corticosteroids were not excluded because at the time of the study there were no standard practices or guidelines for using this medication in the study population at Rush. Clinical outcomes were assessed from the time of admission to the time of discharge.
(§2) For continuous variables, independent samples t-tests were performed. For each continuous variable, a Levene's test for equality of variances was performed. With significance on Levene's test for heterogeneity of variances, a Mann-Whitney U test was performed. […] Categorical variables were assessed with a Pearson's chi-squared test. If any expected count in a 2×2 table was less than 5, a Fisher's exact test was performed. […] We used p≤0.05 as the threshold for significance.

[2] = tested on: patients with COVID-19 requiring sedation and invasive mechanical ventilation
From the text: as §1
We identified patients that were hospitalized at Rush University from Mar. […] Corticosteroids were not excluded because at the time of the study there were no standard practices or guidelines for using this medication in the study population at Rush. Clinical outcomes were assessed from the time of admission to the time of discharge.
We evaluated patients in each group for age, gender, race, ethnicity, and comorbidities at admission. […] Directly prior to intubation, a sequential organ failure assessment score (SOFA) was calculated for each group, and a PaO2/FiO2 (mmHg) was separately assessed.
Our primary tool to assess 28-day mortality was multivariable Cox proportional hazards regression.
as §2
Simple imputation using the mean of the immediate preceding and succeeding most severe value over 24 hours was used for missing values for Pao2/Flo2 and mSOFA scores within the 24 hour time period of interest (intubation) (11-13). A complete case analysis was performed (14). All analyses were performed using SPSS version 27.

[3] = 90% or greater vs less than 90%
[4] = time on dexmedetomidine/time on intubation 90% or greater (n=30)
[5] = time on dexmedetomidine/time on intubation less than 90% (n=122)

Cc1cccc([C@H](C)c2cnc[nH]2)c1C [DEX, dexmedetomidine]
Hospital length of stay ([1]; 90% or greater (n=30)): 24.37 days
ICU Free days at day 60 ([1]; 90% or greater (n=30)): 36.45
ICU time ([1]; 90% or greater (n=30)): 18.76 days
Intubation time ([1]; 90% or greater (n=30)): 9.61 days
Ventilator free days at day 60 ([1]; 90% or greater (n=30)): 43.63
Hospital length of stay, Difference Between Groups [1, 3]: -1.38 days
ICU Free days at day 60, Difference Between Groups [1, 3]: 11.48
ICU time, Difference Between Groups [1, 3]: -1.83 days
Intubation time, Difference Between Groups [1, 3]: -5.92 days
Ventilator free days at day 60, Difference Between Groups [1, 3]: 15.55
In-hospital mortality, Risk Ratio ([1]; 90% or greater vs less than 90% of intubation time on dexmedetomidine): 0.277
Hospital length of stay ([1]; less than 90% (n=122)): 25.75 days
ICU Free days at day 60 ([1]; less than 90% (n=122)): 24.98
ICU time ([1]; less than 90% (n=122)): 20.59 days
Intubation time ([1]; less than 90% (n=122)): 15.53 days
Ventilator free days at day 60 ([1]; less than 90% (n=122)): 28.08
In-hospital mortality (%) [1, 4]: (10.0%)
In-hospital mortality (count) [1, 4]: 3/30
In-hospital mortality (%) [1, 5]: (36.1%)
In-hospital mortality (count) [1, 5]: 44/122
relative risk reduction (28-day mortality) ([2]; DEX cohort vs cohort that did not receive DEX, 95% CI 42.4-69.6%): 58.2%
28-day mortality ([2]; from start time of intubation, cohort receiving DEX (n=152)): 27.0%
landmark analysis of 28-day mortality by start time of DEX ([2]; time cut-offs days 1-22 from intubation, earlier DEX use): lower aHRs and increased significance
28-day mortality aHR ([2]; univariable Cox regression with DEX use as time-varying covariate, (95% CI)): 0.56
